Broadly, the melting point is the temperature of the solid-liquid transition.

As for `COc1cc(Nc2nccc(-c3ccc(OCCCN)cc3)n2)cc(OC)c1OC`, the melting point lay in the range of 161 to 162 °C.

Molecule `O=C(O)CCCC=C(c1ccccc1)c1ccccc1` came in with a melting point of 111 to 112 °C.

With `N#Cc1cnn2c(C(F)(F)F)cc(-c3ccc(F)c(Cl)c3)nc12`, the melting point is 190 °C.

`OCc1c(Cl)c(Cl)c(Cl)c(Cl)c1Cl` returned a melting point of 195 to 196 °C.

The molecule `CC(C)(C)OC(=O)N1[C@@H](Cc2cccc(C3CCC3)c2)C(=O)O[C@H](c2ccccc2)[C@@H]1c1ccccc1` showed a melting point of 145 to 147 °C.

The molecule `CC(C)Nc1cccnc1N1CCN(C(=O)c2ccc(C(=O)N(CCO)CCO)cc2)CC1` had a melting point of 161 to 162 °C.

Consider `O=c1[nH]c2cc(Cl)ccc2c(O)c1Sc1ccccc1Br`, for which the melting point was above 300 °C.

Regarding `C#CCc1c(-c2ccccc2)nc(C)n(C)c1=O`, the melting point lay within 142 to 144 °C.

`O=[N+]([O-])c1cnn2c1NCCC2`: the melting point was 251 to 252 °C.

In turn, `CCS(=O)(=O)Nc1cc(-n2nc3n(c2=O)CCS3)c(F)cc1C#N` had a melting point of 209 to 211 °C.

As for `COc1ccc(-n2c(-c3ccccc3)cnc2S)cc1`, the melting point came out at 167 °C.

Take `COC[C@@H](OC)[C@@H](OC)[C@H](OC)[C@H](CN(C)C(=O)c1ccc2n1Cc1ccccc1N(C(=O)c1ccc(C3=CCCCC3)c(C)c1)C2)OC`: the melting point was in the range of 68 to 83 °C.

`CN(CC(=O)OC(C)(C)C)C[C@@H]1CC(c2ccc(-c3ccc(N4C[C@H](Cn5ccnn5)OC4=O)cc3F)cn2)=NO1`: the melting point came out at 180 °C.

`O=c1[nH]nc(Cl)cc1Nc1ccncn1` returned a melting point above 300 °C.

Turning to `CCCCNC(=O)NS(=O)(=O)c1c(C(=O)OCC)cnn1-c1ccc2ccccc2n1`, the melting point was 140 to 142 °C.

`Oc1ccc(CN2CCN(CCCN3CCN(Cc4ccc(O)cc4)CC3)CC2)cc1` showed a melting point of 197 to 201 °C.

In turn, `CCn1cc(C(=O)NC2CCCCC2)c(=O)c2cnc(N3CCCC3)nc21` displayed a melting point of 265 to 267 °C.

For the molecule `CCOC(=O)C(CC=Cc1ccc(Cl)cc1)S(=O)(=O)c1ccc(C)cc1` (stereo not given), the melting point was in the range of 87 to 88 °C.

For `CC(=O)Nc1ccc(OCC2CO2)c(C(=O)Nc2cccc3[nH]ccc23)c1` (stereo not given), the melting point was 230 °C.

For `CCCC(=O)c1cnc2cc(COC(=O)c3ccccc3)ccc2c1Nc1ccccc1C`, the melting point is 110 to 112 °C.

On to `COc1ccc2[nH]c(C(=O)NCCN(C)C)c(-c3ccccc3F)c2c1`, for which the melting point fell in the range of 184 to 186 °C.

`O=C1N[C@H](Cc2ccc(C(F)(F)F)cc2)[C@H](c2ccc(F)cc2F)O1` (racemic) had a melting point of 147 to 148 °C.

The molecule `COc1ccc(C(=O)Cc2ccccc2)cc1OC1CCCC1` gave a melting point of 117 to 119 °C.

In the case of `CN1CCP(=O)(c2ccccc2)CC1`, the melting point is 115 to 116 °C.

Molecule `O=c1[nH]c2ccccc2n1CCCN1CCN(c2n[nH]c3cc(F)ccc23)CC1` showed a melting point of 236 to 238 °C.

For `O=C(c1ccc(Cl)cc1)C1(c2ccccc2Cl)CO1` (stereo not given), the melting point lay within 65 to 66 °C.

On to `COc1cccc(NC(=O)NC2C(=O)N(CC34CC5CC(CC(C5)C3)C4)c3ccccc3N(c3ccccc3)C2=O)c1` (stereo not given), for which the melting point fell in the range of 267 to 268 °C.

`CNC[C@@H](O)c1cnccn1` showed a melting point of 78 to 81 °C.

In turn, `O=C(O)CCCC(=O)CCCc1ccccc1CCCC(=O)O` gave a melting point of 87 °C.

The molecule `Cn1nc(Br)c([N+](=O)[O-])c1NCc1ccccc1` had a melting point of 133 °C.

Turning to `O=C(Nc1ccccc1Oc1ccc(Cl)cc1Cl)C1CCN(S(=O)(=O)c2cc(Cl)ccc2Cl)CC1`, the melting point was in the range of 194 to 196 °C.

The molecule `CC1(COc2cccc(Br)c2)COC(C)(C)OC1` showed a melting point of 67 to 70 °C.

In turn, `CCOC(=O)c1nc2ccc(N)cc2c(=O)[nH]1` came in with a melting point of 233 to 235 °C.

Regarding `CCOC(=O)/C=C/c1ccc(OCCOC)cc1NC(=O)c1ccc(Cl)cc1Cl`, the melting point stood at 170 °C.

In turn, `CCC(=C(c1ccccc1)c1ccc(C2CC2C(=O)N(CC)CC)cc1)c1ccccc1` (stereo not given) gave a melting point of 42 to 44 °C.

Values taken from a melting point compilation (Tetko et al.; mined from patent text by program, amines drawn as free bases though some values may be those of a salt).
